Experimental data published in patent US8569382B2, “Isolated compounds from Phaleria macrocarpa as anti-cancer agents” (PT. Dexa Medica, priority 2008, dated 2013).
Converted amounts (≈) assume the structure as drawn.

How the values were obtained:
Assay type in all cases: cell-based
BCl2 mRNA expression = assay: BCl2 RT-PCR in MDA-MB-231 cells; conditions: various concentrations, serum free medium, FIGS. 10a, 10b
Description: (§1) BCl2 and Bax genes are genes acting in apoptosis process. To identify BCl2 and Bax mRNA expressions, RT-PCR (reverse-transcription PCR) was performed. MDA-MB-231 cancer cells were grown in plates and added with E2.2 compound samples as a single agent in various concentrations. Experiment condition was performed in serum free medium. RNA total was isolated from MDA-MB-231 cancer cells. RNA isolation products were quantified using spectrophotometer and visualized by agarose gel electrophoresis technique. The RNAs were then used in RT-PCR process using specific primers. RT-PCR process was performed in PCR machine with optimized condition.

Bax mRNA expression = assay: Bax RT-PCR in MDA-MB-231 cells; conditions: various concentrations, serum free medium, FIGS. 11a, 11b
Description: as §1

MDA-MB-231 cells = assay: DNA fragmentation analysis (DNA Apoptosis Ladder Kit, gel electrophoresis); conditions: MDA-MB-231 cells, 50, 75, and 100 μg/mL; FIG. 9
Description: (§2) In this assay, the effect of E2.2 and F1 compounds as anti proliferation and E2.2 compound as apoptosis inducer against MDA-MB-231 cancer cells will be observed. MDA-MB-231 cells were cultured in supplemented medium cells, and then incubated at temperature 37° C., 5% CO2.
Apoptosis is an active process of cell death marked with DNA chromosome cleavage, chromatin condensation, and also DNA fragmentation. In this experiment, it was observed the effect of E2.2 compound addition toward the formation of DNA fragmentation as one of apoptosis indicators. Cells were cultured in the plates. After incubation for 24 hours, it was added with E2.2 compound in various concentrations. DNA fragmentation determination was performed using DNA Apoptosis Ladder Kit.

MDA-MB-231 cancer cells = assay: Anti-proliferation assay of MDA-MB-231 cancer cells (MTT); conditions: for effect on proliferation of MDA-MB-231 cells (percentage of alive cancer cell): with increase of concentration, FIG. 7 (F1), FIG. 8 (E2.2)
Description: as §2
This assay was performed in 96-well plates. Each well contained certain cancer cell density. After incubation for 24 hours, medium was changed into serum free medium, after that it was added with E2.2 compound sample as a single agent in various concentrations, so was with F1 compound. Cells were then re-incubated and after that the number of alive cells after treatment was determined by cell death determination assay. Absorbance value was read in microplate reader. After the absorbance value was converted with standard curve, the number of alive and death cells can be obtained.
Percentage of the number of alive cells in each treatment can be counted by counting the number of alive cells at wells that received treatment divided with the number of alive cells at healthy control and multiplied with 100%. % The number of alive cells=B/A×100% Notes: A is the number of alive cells at healthy control, and B is the number of alive cells that received treatment. IC50 value is a number showing a sample concentration that causes death as much as 50% in a population. Such value is obtained using BioStat statistical program. b. DNA Fragmentation Analysis Method

IC50 (MDA-MB-231 cancer cells; Homo sapiens, MDA-MB-231 cells, MTT result, serum free medium, BioStat statistical program) [µg/mL] | IC50 value (MDA-MB-231 cancer cells; MDA-MB-231 cells, MTT result, serum free medium, BioStat statistical program) [µg/mL] | SMILES | BCl2 mRNA expression (BCl2 mRNA expression) | Bax mRNA level (Bax mRNA expression) | formation of DNA fragments (apoptosis marker) (MDA-MB-231 cells) | effect on proliferation of MDA-MB-231 cells (percentage of alive cancer cell) (MDA-MB-231 cancer cells)
36.9 (≈ 142 µM) |  | COc1cc(O)c(C(=O)c2ccc(O)cc2)c(O)c1 [E2.2, 2,4′,6-trihydroxy-4-methoxybenzophenone] | downregulation | upregulation | apoptosis inducer effect | anti proliferation effect
 | 65.80 (≈ 156 µM) | COc1cc(O)c(C(=O)c2ccc(O)cc2)c(O[C@@H]2O[C@H](CO)[C@@H](O)[C@H](O)[C@H]2O)c1 [F1, 4′,6-di-hydroxy-4-methoxybenzophenone-2-O-β-D-glycopyranoside] |  |  |  | anti proliferation effect
